These results are taken from paper PMC9967275, “Screening the Pathogen Box to Discover and Characterize New Cruzain and TbrCatL Inhibitors” (Pathogens, 2023).

The target of one assay is cruzain (Trypanosoma cruzi, UniProt P25779). Put plainly: biochemical. Particulars: for Cruzain 0’ Inhibition / Cruzain 10’ Inhibition: sheet "Screening results". The procedure, abridged:
(§1)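 Recombinant enzymes assayed by Z-Phe-Arg-AMC cleavage at 25 °C, fluorescence 340/440 nm over 5–7 min, with 10 min or no enzyme–compound preincubation.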

The next assay has as its target T1, TbrCatL (Trypanosoma brucei rhodesiense, UniProt Q95PM0).
T1 construct: Conor Caffrey (University of California San Diego)
Put plainly: TbrCatL enzymatic inhibition assay (cleavage of fluorogenic substrate Z-FR-AMC). It counts as biochemical. Particulars: for TbrCatL 0’ Inhibition / TbrCatL 10’ Inhibition: sheet "Screening results". In outline:
as §1

[1] abbreviates: 0’ (no pre-incubation), sheet Screening results.
The mark [2] stands for this setting: 10’ (pre-incubation), sheet Screening results.
The mark [3] stands for this setting: 0’ (pre-incubation time), Pathogen Box screening results.
Where [4] appears, read: 10’ (pre-incubation time), Pathogen Box screening results.
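Also: at 5 µM compound concentration.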

cruzain, sequence (P25779 123-337 limits assumed): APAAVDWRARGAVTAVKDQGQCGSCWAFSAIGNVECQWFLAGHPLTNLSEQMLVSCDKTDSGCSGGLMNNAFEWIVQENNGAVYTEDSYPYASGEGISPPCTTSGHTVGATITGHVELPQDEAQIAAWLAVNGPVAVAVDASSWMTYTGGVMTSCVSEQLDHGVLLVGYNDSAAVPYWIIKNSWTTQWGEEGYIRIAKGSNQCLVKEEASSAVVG
T1 sequence (Q95PM0 entry or part of it): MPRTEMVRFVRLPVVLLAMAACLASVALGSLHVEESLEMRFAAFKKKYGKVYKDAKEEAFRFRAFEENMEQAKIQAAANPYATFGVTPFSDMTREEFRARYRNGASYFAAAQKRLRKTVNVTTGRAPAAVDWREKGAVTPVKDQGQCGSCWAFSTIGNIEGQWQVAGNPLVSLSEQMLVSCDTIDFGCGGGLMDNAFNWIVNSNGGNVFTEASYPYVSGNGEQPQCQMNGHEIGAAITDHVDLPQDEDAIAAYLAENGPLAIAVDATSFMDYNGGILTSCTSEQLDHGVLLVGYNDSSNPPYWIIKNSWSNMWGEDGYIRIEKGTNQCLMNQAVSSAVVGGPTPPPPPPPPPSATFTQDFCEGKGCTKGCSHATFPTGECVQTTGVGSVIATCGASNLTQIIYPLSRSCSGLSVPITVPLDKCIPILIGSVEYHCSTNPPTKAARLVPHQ

As for `CC(C)(C)OC(=O)N1CCC(Cn2nc(-c3cnc4ccccc4c3)c3c(N)ncnc32)CC1` [MMV688364], on cruzain (0’ (pre-incubation time)), the “Cruzain 0’ Inhibition” value was -14%. The “Cruzain 10’ Inhibition” value at cruzain (10’ (pre-incubation time)) stood at 0%. On TbrCatL (0’ (pre-incubation time)), the “TbrCatL 0’ Inhibition” value is on record as -10%. The “TbrCatL 10’ Inhibition” value at TbrCatL (10’ (pre-incubation time)) is -15%.

With `CCOc1ccc2cc(-c3nn(CC4CCN(C)CC4)c4ncnc(N)c34)ccc2c1` [MMV688854], the “Cruzain Inhibition 0’” value on cruzain (setting [1]) was 27%. In addition, the “Cruzain Inhibition 10’” value on cruzain (setting [2]) came to 11%. In addition, the “TbrCatL Inhibition 0’” value at TbrCatL (setting [1]) is 2.7%. Besides, the “TbrCatL Inhibition 10’” value on TbrCatL (setting [2]) was -5%.

As for `O=C(NCCc1c[nH]c2ccccc12)c1cc2ccccc2oc1=O` [MMV676539], the “Cruzain Inhibition 0’” value on cruzain (setting [1]) was determined as 14%. The “Cruzain Inhibition 10’” value on cruzain (setting [2]) is recorded as 14%. The “TbrCatL Inhibition 0’” value at TbrCatL (setting [1]) came to 10%. In addition, the “TbrCatL Inhibition 10’” value on TbrCatL (setting [2]) is reported as 20%.

Consider `NC(=O)c1cc(Br)ccc1OCCOc1ccccc1` [MMV687243], for which the “Cruzain Inhibition 0’” value at cruzain (setting [1]) turned out to be 8%. In addition, the “Cruzain Inhibition 10’” value at cruzain (setting [2]) was found to be 8%. The “TbrCatL Inhibition 0’” value on TbrCatL (setting [1]) is given as -2.4%. Moreover, at TbrCatL (setting [2]), the “TbrCatL Inhibition 10’” value was -18%.

For the molecule `CNC(=O)c1nn(C)c2c1C(C)(C)Cc1cnc(Nc3ccc(N4CCN(C)CC4)cc3)nc1-2` [MMV676602], the “Cruzain Inhibition 0’” value on cruzain (setting [1]) was 0.9%. The “Cruzain Inhibition 10’” value on cruzain (setting [2]) is given as -6%. On TbrCatL (setting [1]), the “TbrCatL Inhibition 0’” value stood at 4%. Besides, the “TbrCatL Inhibition 10’” value at TbrCatL (setting [2]) came out at 1.5%.

For the molecule `CC(C)NCC(=O)Nc1cccc(C(=O)Nc2cccc(C(F)(F)F)c2)c1` [MMV020165], the “Cruzain 0’ Inhibition” value on cruzain (0’ (pre-incubation time)) is given as -1.7%. Besides, at cruzain (10’ (pre-incubation time)), the “Cruzain 10’ Inhibition” value was 12%. In addition, the “TbrCatL 0’ Inhibition” value at TbrCatL (0’ (pre-incubation time)) came to 1.8%. Besides, the “TbrCatL 10’ Inhibition” value on TbrCatL (10’ (pre-incubation time)) is recorded as 5%.

Regarding `CNc1cc(C)nc(C2CN(C(=O)c3n[nH]c4ccccc34)CCO2)c1` (centres unmarked) [MMV689709], at cruzain (0’ (pre-incubation time)), the “Cruzain 0’ Inhibition” value was -1.4%. Further, at cruzain (10’ (pre-incubation time)), the “Cruzain 10’ Inhibition” value came to 1.3%. Besides, the “TbrCatL 0’ Inhibition” value at TbrCatL (0’ (pre-incubation time)) worked out at 8%. The “TbrCatL 10’ Inhibition” value on TbrCatL (10’ (pre-incubation time)) was found to be 3.8%.

On to `CCCCCCCCCCCCCCCCOP(=O)([O-])OCC[N+](C)(C)C` [MMV688990], for which, on cruzain (setting [3]), the “Cruzain Inhibition 0’” value was -0.1%. Further, the “Cruzain Inhibition 10’” value at cruzain (setting [4]) worked out at 0.6%. Also, the “TbrCatL Inhibition 0’” value at TbrCatL (setting [3]) was -2.4%. Besides, the “TbrCatL Inhibition 10’” value at TbrCatL (setting [4]) was -12%.

Consider `Cc1ccc(-c2cc(C(=O)Nc3cccnc3)c3cc(Br)ccc3n2)cc1` [MMV016838], for which the “Cruzain Inhibition 0’” value on cruzain (setting [3]) stood at 4.3%. Also, the “Cruzain Inhibition 10’” value on cruzain (setting [4]) amounted to 7.6%. Further, the “TbrCatL Inhibition 0’” value on TbrCatL (setting [3]) is recorded as 1.7%. Besides, the “TbrCatL Inhibition 10’” value at TbrCatL (setting [4]) came to 0.3%.

For `c1ccc(-c2nc(NC3CCCCC3)cc(C3CC3)n2)nc1` [MMV021013], the “Cruzain Inhibition 0’” value on cruzain (setting [3]) is on record as 9%. Moreover, the “Cruzain Inhibition 10’” value on cruzain (setting [4]) was 16%. The “TbrCatL Inhibition 0’” value at TbrCatL (setting [3]) was -1.4%. Moreover, the “TbrCatL Inhibition 10’” value on TbrCatL (setting [4]) was 19%.

Take `O=C(c1ccco1)N(CCCn1ccnc1)c1nc2c(Cl)cccc2s1` [MMV688936]: the “Cruzain Inhibition 0’” value on cruzain (setting [1]) came out at 5.6%. The “Cruzain Inhibition 10’” value at cruzain (setting [2]) is -0.2%. The “TbrCatL Inhibition 0’” value on TbrCatL (setting [1]) is recorded as 19%. The “TbrCatL Inhibition 10’” value at TbrCatL (setting [2]) turned out to be 0.6%.

Regarding `CC(=O)N(CCN(C(=O)c1ccc(F)cc1)c1ccccc1)c1ccccc1` [MMV676064], the “Cruzain 0’ Inhibition” value at cruzain (0’ (pre-incubation time)) is on record as -6%. The “Cruzain 10’ Inhibition” value on cruzain (10’ (pre-incubation time)) amounted to 3%. In addition, the “TbrCatL 0’ Inhibition” value on TbrCatL (0’ (pre-incubation time)) is -5%. Moreover, at TbrCatL (10’ (pre-incubation time)), the “TbrCatL 10’ Inhibition” value is recorded as -7%.

As to `Cc1nn(C)c(C)c1NS(=O)(=O)c1c(Cl)cc(-c2ccnc(N3CCNCC3)c2)cc1Cl` [MMV688180], the “Cruzain 0’ Inhibition” value on cruzain (0’ (pre-incubation time)) is on record as -4%. Moreover, the “Cruzain 10’ Inhibition” value at cruzain (10’ (pre-incubation time)) was determined as 10%. The “TbrCatL 0’ Inhibition” value on TbrCatL (0’ (pre-incubation time)) is given as -7%. The “TbrCatL 10’ Inhibition” value at TbrCatL (10’ (pre-incubation time)) came out at 28%.

For `NCCC(O)C(=O)N[C@@H]1C[C@H](N)[C@@H](OC2O[C@H](CN)[C@@H](O)[C@H](O)[C@H]2O)[C@H](O)C1OC1O[C@H](CO)[C@@H](O)[C@H](N)[C@H]1O` (some centres unmarked) [MMV687796], at cruzain (setting [3]), the “Cruzain Inhibition 0’” value is recorded as -0.8%. Moreover, the “Cruzain Inhibition 10’” value at cruzain (setting [4]) was -3.6%. The “TbrCatL Inhibition 0’” value on TbrCatL (setting [3]) is listed as -9.5%. For the same molecule, the “TbrCatL Inhibition 10’” value at TbrCatL (setting [4]) was -6%.

As to `COc1ccc(-c2cc(NC(=O)c3ccc(F)cc3Cl)ccc2OC)cc1` [MMV676526], the “Cruzain Inhibition 0’” value at cruzain (setting [1]) was -17%. Moreover, the “Cruzain Inhibition 10’” value on cruzain (setting [2]) is listed as -8%. Further, at TbrCatL (setting [1]), the “TbrCatL Inhibition 0’” value was -15%. The “TbrCatL Inhibition 10’” value on TbrCatL (setting [2]) is listed as -15%.

As for `Cc1cc2ccccc2n1CC(=O)N1CC(C(=O)N2CCCCC2)Oc2ccccc21` (centres unmarked) [MMV020520], on cruzain (setting [1]), the “Cruzain Inhibition 0’” value is reported as 4.7%. For the same molecule, the “Cruzain Inhibition 10’” value at cruzain (setting [2]) came out at 3.4%. For the same molecule, at TbrCatL (setting [1]), the “TbrCatL Inhibition 0’” value is 1.6%. The “TbrCatL Inhibition 10’” value at TbrCatL (setting [2]) was found to be 10%.

As for `FC(F)(F)c1nnc2ccc(Cl)nn12` [MMV069458], the “Cruzain Inhibition 0’” value on cruzain (setting [1]) was 2%. Further, on cruzain (setting [2]), the “Cruzain Inhibition 10’” value is recorded as -4%. For the same molecule, the “TbrCatL Inhibition 0’” value at TbrCatL (setting [1]) is recorded as 4%. The “TbrCatL Inhibition 10’” value at TbrCatL (setting [2]) is given as 0%.

Regarding `COc1ccccc1CNC(=O)c1cc(C2CC2)nc2c1cnn2C(C)C` [MMV020517], the “Cruzain Inhibition 0’” value on cruzain (setting [1]) is on record as 4%. For the same molecule, the “Cruzain Inhibition 10’” value on cruzain (setting [2]) is 7%. Besides, the “TbrCatL Inhibition 0’” value on TbrCatL (setting [1]) turned out to be 2.7%. In addition, at TbrCatL (setting [2]), the “TbrCatL Inhibition 10’” value was 9%.

`O=S(=O)(c1ccc(Cl)cc1)N1CCN(C(=S)NCc2ccco2)CC1` [MMV000858]: the “Cruzain Inhibition 0’” value at cruzain (setting [1]) amounted to 8%. Also, the “Cruzain Inhibition 10’” value on cruzain (setting [2]) stood at 13%. Moreover, the “TbrCatL Inhibition 0’” value on TbrCatL (setting [1]) is 0.9%. Besides, on TbrCatL (setting [2]), the “TbrCatL Inhibition 10’” value is reported as 6%.

As for `Cc1ccccc1CN1CCC(O)(c2ccc(Cl)c(C(F)(F)F)c2)CC1` [MMV688846], the “Cruzain Inhibition 0’” value on cruzain (setting [1]) came out at 10%. Further, the “Cruzain Inhibition 10’” value at cruzain (setting [2]) turned out to be 3%. Further, the “TbrCatL Inhibition 0’” value on TbrCatL (setting [1]) amounted to 2.5%. Further, the “TbrCatL Inhibition 10’” value on TbrCatL (setting [2]) is on record as -17%.

As to `O=C(NC1CC1)c1ccc(N2CCC(Cc3ccccc3)CC2)nc1` [MMV024397], the “Cruzain Inhibition 0’” value on cruzain (setting [1]) came to 3%. At cruzain (setting [2]), the “Cruzain Inhibition 10’” value is given as 6%. Moreover, the “TbrCatL Inhibition 0’” value on TbrCatL (setting [1]) worked out at 2.6%. In addition, the “TbrCatL Inhibition 10’” value on TbrCatL (setting [2]) turned out to be 2.6%.

On to `O=C1O[C@@H](COc2ccon2)CN1c1cc(F)c(C2=CCN(Cc3ccccc3)CC2)c(F)c1` [MMV687813], for which the “Cruzain 0’ Inhibition” value on cruzain (0’ (pre-incubation time)) came out at 2.7%. Also, the “Cruzain 10’ Inhibition” value on cruzain (10’ (pre-incubation time)) is 23%. Also, the “TbrCatL 0’ Inhibition” value at TbrCatL (0’ (pre-incubation time)) stood at 5.3%. Also, at TbrCatL (10’ (pre-incubation time)), the “TbrCatL 10’ Inhibition” value was -1%.

As to `CC(C(=O)N1CCCC1)N1CCN(S(=O)(=O)c2ccc(C(C)(C)C)cc2)CC1` (centres unmarked) [MMV020291], the “Cruzain 0’ Inhibition” value on cruzain (0’ (pre-incubation time)) is given as 2.5%. On cruzain (10’ (pre-incubation time)), the “Cruzain 10’ Inhibition” value stood at 6%. Also, the “TbrCatL 0’ Inhibition” value at TbrCatL (0’ (pre-incubation time)) is given as 4.3%. Besides, the “TbrCatL 10’ Inhibition” value on TbrCatL (10’ (pre-incubation time)) is recorded as 8%.

For `Nc1ccc(C(=O)Nc2ccc(-c3nc4ccccc4o3)cc2)cc1` [MMV007920], the “Cruzain 0’ Inhibition” value on cruzain (0’ (pre-incubation time)) is recorded as 7%. Besides, the “Cruzain 10’ Inhibition” value on cruzain (10’ (pre-incubation time)) came out at 11%. In addition, the “TbrCatL 0’ Inhibition” value on TbrCatL (0’ (pre-incubation time)) was determined as 4.7%. For the same molecule, at TbrCatL (10’ (pre-incubation time)), the “TbrCatL 10’ Inhibition” value is on record as -0.7%.

`O=C(NC1CC1)c1ccc(CSCc2ccccc2Cl)o1` [MMV007803]: on cruzain (0’ (pre-incubation time)), the “Cruzain 0’ Inhibition” value is given as 0.3%. Further, the “Cruzain 10’ Inhibition” value at cruzain (10’ (pre-incubation time)) is listed as -1.7%. Also, on TbrCatL (0’ (pre-incubation time)), the “TbrCatL 0’ Inhibition” value is given as -6.5%. Moreover, the “TbrCatL 10’ Inhibition” value on TbrCatL (10’ (pre-incubation time)) was -0.2%.

Turning to `CC(=O)NC[C@@H]1CN(c2ccc(N3CCOCC3)c(F)c2)C(=O)O1` [MMV687803], the “Cruzain Inhibition 0’” value on cruzain (setting [1]) is -8%. Moreover, the “Cruzain Inhibition 10’” value at cruzain (setting [2]) is -4%. For the same molecule, the “TbrCatL Inhibition 0’” value on TbrCatL (setting [1]) came out at 3.8%. In addition, the “TbrCatL Inhibition 10’” value at TbrCatL (setting [2]) is listed as -0.1%.
